Laboratory results: article doi:10.1101/2024.12.04.625365v1 (biorxiv, 2024)

Key:
recombinant hAQP4 (AQP4) = recombinant hAQP4 (AQP4) (Homo sapiens, UniProt P55087); test: biochemical
[1] = target: T1, A2AR (human A2A receptor) (Homo sapiens, UniProt P29274); test: displacement of [3H]ZM-241385 from crude Pichia membranes; format: binding
[2] = target: T1, A2AR (human A2A receptor); test: intrinsic tryptophan fluorescence quenching; format: binding

T1 sequence (P29274 whole entry): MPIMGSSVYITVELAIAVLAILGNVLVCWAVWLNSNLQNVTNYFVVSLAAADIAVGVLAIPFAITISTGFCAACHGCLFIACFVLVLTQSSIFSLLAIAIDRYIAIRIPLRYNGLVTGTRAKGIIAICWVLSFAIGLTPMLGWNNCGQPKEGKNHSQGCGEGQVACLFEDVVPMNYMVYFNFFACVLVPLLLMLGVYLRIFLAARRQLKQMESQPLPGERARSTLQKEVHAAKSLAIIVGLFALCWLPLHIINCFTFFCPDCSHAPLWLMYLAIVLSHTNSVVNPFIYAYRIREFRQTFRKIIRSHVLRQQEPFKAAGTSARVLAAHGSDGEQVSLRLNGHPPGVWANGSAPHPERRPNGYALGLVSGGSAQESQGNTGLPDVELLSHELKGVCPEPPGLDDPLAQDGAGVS
recombinant hAQP4 (AQP4), sequence (P55087 whole entry): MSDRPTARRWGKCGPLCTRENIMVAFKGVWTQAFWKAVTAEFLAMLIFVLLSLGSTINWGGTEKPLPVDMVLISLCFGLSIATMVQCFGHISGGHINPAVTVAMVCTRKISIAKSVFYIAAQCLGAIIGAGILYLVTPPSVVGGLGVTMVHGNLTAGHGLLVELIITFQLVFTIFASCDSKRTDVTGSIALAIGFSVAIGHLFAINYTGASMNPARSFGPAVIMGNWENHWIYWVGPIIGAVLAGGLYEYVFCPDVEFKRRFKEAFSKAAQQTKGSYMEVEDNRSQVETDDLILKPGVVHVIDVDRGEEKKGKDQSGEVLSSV

O=C(Nc1cc(C(F)(F)F)cc(C(F)(F)F)c1)c1cc(Cl)ccc1O [AER-270, N-(3,5-bis(trifluoromethyl)phenyl)-5-chloro-2-hydroxybenzamide]
Kd (recombinant hAQP4 (AQP4)): 17 ± 3.1 µM

O=C(Nc1nncs1)c1cccnc1 [TGN-020, N-1,3,4-thiadiazol-2-yl-3-pyridinecarboxamide]
IC50 [1]: 20 µM
Kd [2]: 54 µM
